Activity calls are given as the source filed them. How the calls were made is not given here.
Tested on: CCRIS mutagenicity, Ames/micronucleus/aberration tests
Test: CCRIS mutagenicity studies
[1] = Test System: AMES SALMONELLA TYPHIMURIUM, Strain/Indicator: TA98, Metabolic Activation: NONE, Method: STANDARD PLATE
[2] = Test System: AMES SALMONELLA TYPHIMURIUM, Strain/Indicator: TA98, Metabolic Activation: RAT, LIVER, S-9, AROCLOR 1254, Method: STANDARD PLATE
[3] = Test System: AMES SALMONELLA TYPHIMURIUM, Strain/Indicator: TA100, Metabolic Activation: NONE, Method: STANDARD PLATE
[4] = Test System: AMES SALMONELLA TYPHIMURIUM, Strain/Indicator: TA100, Metabolic Activation: RAT, LIVER, S-9, AROCLOR 1254, Method: STANDARD PLATE
[5] = Test System: AMES SALMONELLA TYPHIMURIUM, Strain/Indicator: TA1535, Metabolic Activation: RAT, LIVER, S-9, AROCLOR 1254, Method: STANDARD PLATE

For `C[C@@H]1CC[C@@]2(OC1)O[C@H]1C[C@H]3[C@@H]4CC=C5C[C@@H](O)CC[C@]5(C)[C@H]4CC[C@]3(C)[C@H]1[C@@H]2C`, the mutagenic call (Test System: AMES SALMONELLA TYPHIMURIUM, Strain/Indicator: TA98, Metabolic Activation: HAMSTER, LIVER, S-9, AROCLOR 1254, Method: STANDARD PLATE) was “inactive; negative”, the mutagenic call [1] was “inactive; negative” and the mutagenic call [2] was “inactive; negative”. For the same molecule, the mutagenic call (Test System: AMES SALMONELLA TYPHIMURIUM, Strain/Indicator: TA100, Metabolic Activation: HAMSTER, LIVER, S-9, AROCLOR 1254, Method: STANDARD PLATE) was “inactive; negative”, the mutagenic call [3] was “inactive; negative” and the mutagenic call [4] was “inactive; negative”. The mutagenic call (Test System: AMES SALMONELLA TYPHIMURIUM, Strain/Indicator: TA1535, Metabolic Activation: HAMSTER, LIVER, S-9, AROCLOR 1254, Method: STANDARD PLATE) was “inactive; negative”, the mutagenic call (Test System: AMES SALMONELLA TYPHIMURIUM, Strain/Indicator: TA1535, Metabolic Activation: NONE, Method: STANDARD PLATE) was “inactive; negative” and the mutagenic call [5] was “inactive; negative”. The mutagenic call (Test System: AMES SALMONELLA TYPHIMURIUM, Strain/Indicator: TA1537, Metabolic Activation: HAMSTER, LIVER, S-9, AROCLOR 1254, Method: STANDARD PLATE) was “inactive; negative”, the mutagenic call (Test System: AMES SALMONELLA TYPHIMURIUM, Strain/Indicator: TA1537, Metabolic Activation: NONE, Method: STANDARD PLATE) was “inactive; negative” and the mutagenic call (Test System: AMES SALMONELLA TYPHIMURIUM, Strain/Indicator: TA1537, Metabolic Activation: RAT, LIVER, S-9, AROCLOR 1254, Method: STANDARD PLATE) was “inactive; negative”. For the same molecule, the mutagenic call (Test System: AMES SALMONELLA TYPHIMURIUM, Strain/Indicator: TA1538, Metabolic Activation: HAMSTER, LIVER, S-9, AROCLOR 1254, Method: STANDARD PLATE) was “inactive; negative”, the mutagenic call (Test System: AMES SALMONELLA TYPHIMURIUM, Strain/Indicator: TA1538, Metabolic Activation: NONE, Method: STANDARD PLATE) was “inactive; negative” and the mutagenic call (Test System: AMES SALMONELLA TYPHIMURIUM, Strain/Indicator: TA1538, Metabolic Activation: RAT, LIVER, S-9, AROCLOR 1254, Method: STANDARD PLATE) was “inactive; negative”.
`Oc1ccc2ccc3c4ccccc4ccc3c2c1` was tested, and the mutagenic call [1] was “inactive; negative”, the mutagenic call [3] was “inactive; negative” and the mutagenic call [4] was “active; positive”.
`O=C1OCC(CBr)=C1Br` was tested, and the mutagenic call [3] was “active; positive”.
For `COc1cc(O[C@@H]2O[C@H](CO)[C@@H](O)[C@H](O)[C@H]2O)c2c(=O)c3c(O)ccc(O)c3oc2c1`, the mutagenic call (Test System: AMES SALMONELLA TYPHIMURIUM, Strain/Indicator: TA97, Metabolic Activation: RAT, LIVER, S-9, PHENOBARBITAL AND 5,6-BENZOFLAVONE, BETA-GLUCOSIDASE, Method: PREINCUBATION) was “active; positive”, the mutagenic call (Test System: AMES SALMONELLA TYPHIMURIUM, Strain/Indicator: TA98, Metabolic Activation: RAT, LIVER, S-9, PHENOBARBITAL AND 5,6-BENZOFLAVONE, BETA-GLUCOSIDASE, Method: PREINCUBATION) was “inactive; negative” and the mutagenic call (Test System: AMES SALMONELLA TYPHIMURIUM, Strain/Indicator: TA100, Metabolic Activation: RAT, LIVER, S-9, PHENOBARBITAL AND 5,6-BENZOFLAVONE, BETA-GLUCOSIDASE, Method: PREINCUBATION) was “active; positive”. The mutagenic call (Test System: AMES SALMONELLA TYPHIMURIUM, Strain/Indicator: TA2637, Metabolic Activation: RAT, LIVER, S-9, PHENOBARBITAL AND 5,6-BENZOFLAVONE, BETA-GLUCOSIDASE, Method: PREINCUBATION) was “active; positive”.
For `Cc1ccc(C)cc1`, the mutagenic call (Test System: AMES SALMONELLA TYPHIMURIUM, Strain/Indicator: TA98, Metabolic Activation: HAMSTER, LIVER, S-9, AROCLOR 1254, Method: PREINCUBATION) was “inactive; negative”, the mutagenic call (Test System: AMES SALMONELLA TYPHIMURIUM, Strain/Indicator: TA98, Metabolic Activation: NONE, Method: PREINCUBATION) was “inactive; negative” and the mutagenic call [1] was “inactive; negative”. The mutagenic call (Test System: AMES SALMONELLA TYPHIMURIUM, Strain/Indicator: TA98, Metabolic Activation: RAT, LIVER, S-9, AROCLOR 1254, Method: PREINCUBATION) was “inactive; negative”, the mutagenic call (Test System: AMES SALMONELLA TYPHIMURIUM, Strain/Indicator: TA98, Metabolic Activation: RAT, LIVER, S-9, AROCLOR, Method: STANDARD PLATE) was “inactive; negative” and the mutagenic call (Test System: AMES SALMONELLA TYPHIMURIUM, Strain/Indicator: TA98, Metabolic Activation: RAT, LIVER, S-9, KC 500, Method: PREINCUBATION) was “inactive; negative”. The mutagenic call (Test System: AMES SALMONELLA TYPHIMURIUM, Strain/Indicator: TA100, Metabolic Activation: HAMSTER, LIVER, S-9, AROCLOR 1254, Method: PREINCUBATION) was “inactive; negative”, the mutagenic call (Test System: AMES SALMONELLA TYPHIMURIUM, Strain/Indicator: TA100, Metabolic Activation: NONE, Method: PREINCUBATION) was “inactive; negative” and the mutagenic call [3] was “inactive; negative”. For the same molecule, the mutagenic call (Test System: AMES SALMONELLA TYPHIMURIUM, Strain/Indicator: TA100, Metabolic Activation: RAT, LIVER, S-9, AROCLOR 1254, Method: PREINCUBATION) was “inactive; negative”, the mutagenic call (Test System: AMES SALMONELLA TYPHIMURIUM, Strain/Indicator: TA100, Metabolic Activation: RAT, LIVER, S-9, AROCLOR, Method: STANDARD PLATE) was “inactive; negative” and the mutagenic call (Test System: AMES SALMONELLA TYPHIMURIUM, Strain/Indicator: TA100, Metabolic Activation: RAT, LIVER, S-9, KC 500, Method: PREINCUBATION) was “inactive; negative”. For the same molecule, the mutagenic call (Test System: AMES SALMONELLA TYPHIMURIUM, Strain/Indicator: TA1535, Metabolic Activation: HAMSTER, LIVER, S-9, AROCLOR 1254, Method: PREINCUBATION) was “inactive; negative”, the mutagenic call (Test System: AMES SALMONELLA TYPHIMURIUM, Strain/Indicator: TA1535, Metabolic Activation: NONE, Method: PREINCUBATION) was “inactive; negative” and the mutagenic call (Test System: AMES SALMONELLA TYPHIMURIUM, Strain/Indicator: TA1535, Metabolic Activation: RAT, LIVER, S-9, AROCLOR 1254, Method: PREINCUBATION) was “inactive; negative”. For the same molecule, the mutagenic call (Test System: AMES SALMONELLA TYPHIMURIUM, Strain/Indicator: TA1535, Metabolic Activation: RAT, LIVER, S-9, KC 500, Method: PREINCUBATION) was “inactive; negative”, the mutagenic call (Test System: AMES SALMONELLA TYPHIMURIUM, Strain/Indicator: TA1537, Metabolic Activation: HAMSTER, LIVER, S-9, AROCLOR 1254, Method: PREINCUBATION) was “inactive; negative” and the mutagenic call (Test System: AMES SALMONELLA TYPHIMURIUM, Strain/Indicator: TA1537, Metabolic Activation: NONE, Method: PREINCUBATION) was “inactive; negative”. For the same molecule, the mutagenic call (Test System: AMES SALMONELLA TYPHIMURIUM, Strain/Indicator: TA1537, Metabolic Activation: RAT, LIVER, S-9, AROCLOR 1254, Method: PREINCUBATION) was “inactive; negative”, the mutagenic call (Test System: AMES SALMONELLA TYPHIMURIUM, Strain/Indicator: TA1537, Metabolic Activation: RAT, LIVER, S-9, KC 500, Method: PREINCUBATION) was “inactive; negative” and the mutagenic call (Test System: AMES SALMONELLA TYPHIMURIUM, Strain/Indicator: TA1538, Metabolic Activation: NONE, Method: PREINCUBATION) was “inactive; negative”. The mutagenic call (Test System: AMES SALMONELLA TYPHIMURIUM, Strain/Indicator: TA1538, Metabolic Activation: RAT, LIVER, S-9, KC 500, Method: PREINCUBATION) was “inactive; negative”, the mutagenic call (Test System: AMES SALMONELLA TYPHIMURIUM, Strain/Indicator: UTH8413, Metabolic Activation: NONE, Method: STANDARD PLATE) was “inactive; negative” and the mutagenic call (Test System: AMES SALMONELLA TYPHIMURIUM, Strain/Indicator: UTH8413, Metabolic Activation: RAT, LIVER, S-9, AROCLOR, Method: STANDARD PLATE) was “inactive; negative”. For the same molecule, the mutagenic call (Test System: AMES SALMONELLA TYPHIMURIUM, Strain/Indicator: UTH8414, Metabolic Activation: NONE, Method: STANDARD PLATE) was “inactive; negative”, the mutagenic call (Test System: AMES SALMONELLA TYPHIMURIUM, Strain/Indicator: UTH8414, Metabolic Activation: RAT, LIVER, S-9, AROCLOR, Method: STANDARD PLATE) was “inactive; negative” and the mutagenic call (Test System: E. COLI, Strain/Indicator: WP2 UVRA, Metabolic Activation: NONE, Method: PREINCUBATION) was “inactive; negative”. For the same molecule, the mutagenic call (Test System: E. COLI, Strain/Indicator: WP2 UVRA, Metabolic Activation: RAT, LIVER, S-9, KC 500, Method: PREINCUBATION) was “inactive; negative”.
In the case of `Oc1cc2ccccc2c2ccccc12`, the mutagenic call [2] is reported as “inactive; negative” and the mutagenic call [5] is reported as “active; positive”.
